{"source": "patent US8530435B2", "about": "“Brassinosteroids in treating prostatic hyperplasia and androgenic alopecia” (Grasses of Eden Ltd., priority 2008, dated 2013)", "key": {"mice": {"test_system": "mice", "settings": "orally, mice (female); cited from earlier work"}, "human genital skin 5αR": {"test_system": "human genital skin 5αR", "assay": "5α-reductase activity: reduction of testosterone to DHT in human foreskin tissue enzyme mixture, HPLC", "assay_type": "biochemical", "settings": "for Activity (% of control) / DHT/testosterone (final): initial testosterone 0.34 mM; for DHT/testosterone (final): control 0.1562", "protocol": "5α-reductase activity of soluble enzyme was measured by the reduction of testosterone at 37° C. during 40 min in a 3-ml enzyme mixture of human foreskin tissue or Bos taurus (Bovine) prostatic tissues, containing NADPH, with and without the test compound in parallel with analytical Ventranal standards for Testosterone and DHT. Tissue preparation and enzyme incubations were performed in accordance with Moore et al. (see below) with modifications. All steps were carried out at 4° C. Prostate or foreskin tissue was dissected and homogenized in ice-cold homogenization phosphate buffer at pH 8.0. The homogenate was centrifuged and the resulting cell free supernatant was stored in aliquots at −80° C. Inhibition of the steroid 5α-reductase was measured by incubating the enzyme and testosterone in the presence of a plant extract or a natural compound. […] The ratio of the peak areas gave quantitative measure of the inhibition [Neeman I. et al.: Urol.\nThe activity of 5α-reductase (EC: 1.3.99.5) was checked in human foreskin tissue and in bovine prostatic tissues. Pure compound and plant extracts were tested for their 5α-reductase inhibition activity, in various experiments."}, "fish": {"test_system": "fish", "settings": "in vivo; cited from earlier work"}, "[1]": {"test_system": "mucous membranes of rabbits' eyes", "settings": "concentrations of 0.2%; cited from earlier work"}, "[2]": {"settings": "cited from earlier work"}, "skin": {"test_system": "skin", "settings": "in vivo; cited from earlier work"}, "Tetrahymena pyriformis": {"test_system": "Tetrahymena pyriformis", "settings": "over seven generations; cited from earlier work"}, "[3]": {"test_system": "Salmonella typhimurium TA 1534, TA 1537, TA 1950, TA 98, TA 100", "settings": "with or without metabolic activation; cited from earlier work"}, "mice CBAB1/6": {"test_system": "mice CBAB1/6", "settings": "cited from earlier work"}, "rats": {"test_system": "rats", "settings": "cited from earlier work"}}}
{"smiles": "CC(C)[C@@H](C)[C@@H](O)[C@H](O)[C@@H](C)[C@H]1CC[C@H]2[C@@H]3COC(=O)[C@H]4C[C@H](O)[C@H](O)C[C@]4(C)[C@H]3CC[C@]12C", "note": "[Epibrassinolide-24]", "values": [{"measurement": "LD50", "setting": "mice", "result": "more than 1000 mg/kg"}, {"measurement": "human skin reductase activity inhibited", "setting": "human genital skin 5αR; as in Table 1 (10^−7M)", "result": 74, "unit": "%"}, {"measurement": "Activity (% of control)", "setting": "human genital skin 5αR; inhibitor 10^−7M", "result": "25.9 % of control"}, {"measurement": "DHT/testosterone (final)", "setting": "human genital skin 5αR; inhibitor 10^−7M", "result": 0.0404}, {"measurement": "fish toxicity", "setting": "fish", "result": "no negative effects"}, {"measurement": "stimulative and toxico-protective properties in fish", "setting": "fish", "result": "pronounced stimulative and toxico-protective properties"}, {"measurement": "irritation of mucous membranes of eyes", "setting": "[1]", "result": "did not irritate"}, {"measurement": "toxicity and cumulative effect", "setting": "[2]; acute, subacute, and chronic experiments", "result": "low toxicity and very little cumulative effect"}, {"measurement": "adaptogenic effect (increasing adaptive ability of the population)", "setting": "[2]; prolonged experiments", "result": "pronounced adaptogenic effect"}, {"measurement": "toxicity", "setting": "[2]; prolonged experiments", "result": "no toxicity"}, {"measurement": "skin irritation", "setting": "skin", "result": "did not irritate the skin"}, {"measurement": "genetic safety / mutagenic activity", "setting": "Tetrahymena pyriformis", "result": "absence of mutagenic activity"}, {"measurement": "Ames test for mutagenic activity", "setting": "[3]", "result": "negative"}, {"measurement": "spontaneous mutations in micronuclear or chromosome abberation tests", "setting": "mice CBAB1/6", "result": "neither epibrassinolide-24 nor the liquid formulation caused spontaneous mutations"}, {"measurement": "LD50", "setting": "rats; orally and dermally, rats (male/female)", "result": "more than 2000 mg/kg"}, {"measurement": "Dermal toxicity", "setting": "rats; rat, in vivo", "result": "more than 2000 mg/kg"}]}
{"smiles": "CC(C)(C)NC(=O)[C@H]1CC[C@H]2[C@@H]3CC[C@H]4NC(=O)C=C[C@]4(C)[C@H]3CC[C@]12C", "note": "[Finasteride, reference compound]", "values": [{"measurement": "Activity (% of control)", "setting": "human genital skin 5αR; inhibitor 10^−6M", "result": "32.7 % of control"}, {"measurement": "DHT/testosterone (final)", "setting": "human genital skin 5αR; inhibitor 10^−6M", "result": 0.0607}]}
